Legend:
Experiment in all cases: KINOMEscan
Assay type in all cases: binding
Settings in all cases: read-out: percent of control
MEK3 = MEK3 (Homo sapiens (Human), UniProt P46734)
Experimental: (§1) In vitro profiling of Compound I-2 (1 μM) was performed using the DiscoveRx KINOMEscan® platform.

ROCK1 = ROCK1 (Homo sapiens (Human), UniProt Q13464)
Experimental: as §1

PIK3CA(H1047L) = PIK3CA(H1047L) (Homo sapiens (Human), UniProt P42336, H1047L)
Experimental: as §1

RIOK2 = RIOK2 (Homo sapiens (Human), UniProt Q9BVS4)
Experimental: as §1

TNK2 = TNK2 (Homo sapiens (Human), UniProt Q07912)
Experimental: as §1

MTOR = MTOR (Homo sapiens (Human), UniProt P42345)
Experimental: as §1

CSK = CSK (Homo sapiens (Human), UniProt P41240)
Sequence of CSK (P41240 whole entry): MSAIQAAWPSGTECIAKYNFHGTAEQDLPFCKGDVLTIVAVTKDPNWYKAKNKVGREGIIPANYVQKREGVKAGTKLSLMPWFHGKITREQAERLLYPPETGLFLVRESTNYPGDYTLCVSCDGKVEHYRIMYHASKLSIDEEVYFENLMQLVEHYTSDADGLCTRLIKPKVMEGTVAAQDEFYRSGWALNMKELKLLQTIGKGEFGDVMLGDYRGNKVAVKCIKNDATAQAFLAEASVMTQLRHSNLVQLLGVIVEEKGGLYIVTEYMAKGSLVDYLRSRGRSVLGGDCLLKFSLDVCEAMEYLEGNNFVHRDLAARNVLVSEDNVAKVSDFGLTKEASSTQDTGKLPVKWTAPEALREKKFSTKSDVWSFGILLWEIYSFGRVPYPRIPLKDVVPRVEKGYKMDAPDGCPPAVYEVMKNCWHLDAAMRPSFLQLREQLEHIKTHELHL
Experimental: as §1

DCAMKL2 = DCAMKL2 (Homo sapiens (Human), UniProt Q8N568)
Sequence of DCAMKL2 (Q8N568 whole entry, looked up): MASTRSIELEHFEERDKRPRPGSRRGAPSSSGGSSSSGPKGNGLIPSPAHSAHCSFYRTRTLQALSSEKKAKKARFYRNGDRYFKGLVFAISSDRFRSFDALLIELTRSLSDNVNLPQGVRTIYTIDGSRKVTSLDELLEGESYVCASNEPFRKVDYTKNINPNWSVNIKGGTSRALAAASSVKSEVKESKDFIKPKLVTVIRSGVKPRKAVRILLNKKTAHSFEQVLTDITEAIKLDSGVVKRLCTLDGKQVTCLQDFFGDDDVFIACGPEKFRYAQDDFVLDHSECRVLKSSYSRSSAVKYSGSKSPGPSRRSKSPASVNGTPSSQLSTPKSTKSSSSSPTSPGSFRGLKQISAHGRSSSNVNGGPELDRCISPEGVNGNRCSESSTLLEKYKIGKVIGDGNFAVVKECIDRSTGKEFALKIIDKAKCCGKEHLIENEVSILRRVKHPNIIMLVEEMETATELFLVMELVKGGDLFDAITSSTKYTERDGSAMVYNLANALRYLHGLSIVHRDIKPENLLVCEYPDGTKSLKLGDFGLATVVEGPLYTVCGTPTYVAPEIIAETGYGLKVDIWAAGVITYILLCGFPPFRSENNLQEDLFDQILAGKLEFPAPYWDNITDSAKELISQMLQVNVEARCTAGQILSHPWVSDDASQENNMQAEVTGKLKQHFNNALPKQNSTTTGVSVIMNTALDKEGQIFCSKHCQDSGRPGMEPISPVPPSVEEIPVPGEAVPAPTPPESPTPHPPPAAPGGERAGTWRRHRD
Experimental: as §1

TAOK3 = TAOK3 (Homo sapiens (Human), UniProt Q9H2K8)
Experimental: as §1

FLT3 (D835Y) = FLT3 (D835Y) (Homo sapiens (Human), UniProt P36888, D835Y)
Experimental: as §1

KIT(V559D,T670I) = KIT(V559D,T670I) (Homo sapiens (Human), UniProt P10721, T670I/V559D)
Experimental: as §1

DDR1 = DDR1 (Homo sapiens (Human), UniProt Q08345)
Experimental: as §1

CSNK1A1L = CSNK1A1L (Homo sapiens (Human), UniProt Q8N752)
Experimental: as §1

PRKD3 = PRKD3 (Homo sapiens (Human), UniProt O94806)
Experimental: as §1

NLK = NLK (Homo sapiens (Human), UniProt Q9UBE8)
Experimental: as §1

FYN = FYN (Homo sapiens (Human), UniProt P06241)
Sequence of FYN (P06241 whole entry): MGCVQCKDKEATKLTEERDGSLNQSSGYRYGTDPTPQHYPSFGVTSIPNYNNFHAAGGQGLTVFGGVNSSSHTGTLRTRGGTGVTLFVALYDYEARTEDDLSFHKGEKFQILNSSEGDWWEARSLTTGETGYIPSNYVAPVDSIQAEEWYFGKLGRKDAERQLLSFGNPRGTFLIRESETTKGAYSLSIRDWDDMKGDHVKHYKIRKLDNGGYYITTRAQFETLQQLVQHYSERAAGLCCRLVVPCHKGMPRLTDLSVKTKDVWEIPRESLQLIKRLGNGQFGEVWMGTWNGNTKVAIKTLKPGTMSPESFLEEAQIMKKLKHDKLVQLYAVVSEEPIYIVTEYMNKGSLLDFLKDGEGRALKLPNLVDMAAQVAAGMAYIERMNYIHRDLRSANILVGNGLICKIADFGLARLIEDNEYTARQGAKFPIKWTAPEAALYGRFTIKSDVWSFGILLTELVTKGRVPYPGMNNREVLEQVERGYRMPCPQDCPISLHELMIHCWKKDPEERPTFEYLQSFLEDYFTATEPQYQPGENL
Experimental: as §1

[1] = target: ABL1(Q252H)-phosphorylated (Homo sapiens (Human), UniProt P00519, Q252H)
Experimental: as §1

[2] = target: ABL1(F317L)-phosphorylated (Homo sapiens (Human), UniProt P00519, F317L)
Experimental: as §1

[3] = target: RSK4 (Kin.Dom.2-C-terminal) (Homo sapiens (Human), UniProt Q9UK32)
Sequence of RSK4 (Kin.Dom.2-C-terminal) (Q9UK32 426-683): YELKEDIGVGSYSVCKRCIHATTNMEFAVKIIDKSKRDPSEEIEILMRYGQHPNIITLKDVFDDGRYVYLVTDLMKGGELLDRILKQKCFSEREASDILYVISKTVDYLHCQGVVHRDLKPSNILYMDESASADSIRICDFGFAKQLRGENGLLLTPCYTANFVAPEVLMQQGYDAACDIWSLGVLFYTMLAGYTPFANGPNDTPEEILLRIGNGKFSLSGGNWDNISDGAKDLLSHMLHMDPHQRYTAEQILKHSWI
Experimental: as §1

PKN1 = PKN1 (Homo sapiens (Human), UniProt Q16512)
Experimental: as §1

CDKL1 = CDKL1 (Homo sapiens (Human), UniProt Q00532)
Sequence of CDKL1 (Q00532 whole entry): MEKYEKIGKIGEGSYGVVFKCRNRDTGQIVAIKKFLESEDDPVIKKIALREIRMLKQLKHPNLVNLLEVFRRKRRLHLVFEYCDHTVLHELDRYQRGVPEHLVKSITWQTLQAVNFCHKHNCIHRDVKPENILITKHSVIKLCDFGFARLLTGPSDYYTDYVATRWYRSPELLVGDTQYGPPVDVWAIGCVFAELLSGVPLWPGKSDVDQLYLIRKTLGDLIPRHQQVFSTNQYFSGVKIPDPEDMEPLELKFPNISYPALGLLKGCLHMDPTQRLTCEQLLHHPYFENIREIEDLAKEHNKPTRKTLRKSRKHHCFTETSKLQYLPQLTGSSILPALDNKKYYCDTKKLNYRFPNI
Experimental: as §1

PHKG2 = PHKG2 (Homo sapiens (Human), UniProt P15735)
Experimental: as §1

EPHA1 = EPHA1 (Homo sapiens (Human), UniProt P21709)
Experimental: as §1

EGFR(L747-E749del,A750P) = EGFR(L747-E749del,A750P) (Homo sapiens (Human), UniProt P00533, A750P/DEL747-749)
Experimental: as §1

MST3 = MST3 (Homo sapiens (Human), UniProt Q9Y6E0)
Sequence of MST3 (Q9Y6E0 whole entry): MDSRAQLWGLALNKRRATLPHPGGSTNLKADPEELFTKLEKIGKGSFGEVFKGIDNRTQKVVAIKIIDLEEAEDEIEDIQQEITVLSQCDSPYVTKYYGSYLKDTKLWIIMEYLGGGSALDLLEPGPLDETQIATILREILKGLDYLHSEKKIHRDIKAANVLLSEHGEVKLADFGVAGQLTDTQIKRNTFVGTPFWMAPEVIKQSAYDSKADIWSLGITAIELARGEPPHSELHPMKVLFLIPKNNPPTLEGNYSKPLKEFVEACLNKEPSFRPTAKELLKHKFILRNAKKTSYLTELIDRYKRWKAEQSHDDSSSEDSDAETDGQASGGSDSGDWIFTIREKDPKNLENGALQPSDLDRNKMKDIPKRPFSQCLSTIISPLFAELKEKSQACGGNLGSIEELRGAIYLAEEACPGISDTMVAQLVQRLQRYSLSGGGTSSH
Experimental: as §1

SRC = SRC (Homo sapiens (Human), UniProt P12931)
Sequence of SRC (P12931 whole entry, looked up): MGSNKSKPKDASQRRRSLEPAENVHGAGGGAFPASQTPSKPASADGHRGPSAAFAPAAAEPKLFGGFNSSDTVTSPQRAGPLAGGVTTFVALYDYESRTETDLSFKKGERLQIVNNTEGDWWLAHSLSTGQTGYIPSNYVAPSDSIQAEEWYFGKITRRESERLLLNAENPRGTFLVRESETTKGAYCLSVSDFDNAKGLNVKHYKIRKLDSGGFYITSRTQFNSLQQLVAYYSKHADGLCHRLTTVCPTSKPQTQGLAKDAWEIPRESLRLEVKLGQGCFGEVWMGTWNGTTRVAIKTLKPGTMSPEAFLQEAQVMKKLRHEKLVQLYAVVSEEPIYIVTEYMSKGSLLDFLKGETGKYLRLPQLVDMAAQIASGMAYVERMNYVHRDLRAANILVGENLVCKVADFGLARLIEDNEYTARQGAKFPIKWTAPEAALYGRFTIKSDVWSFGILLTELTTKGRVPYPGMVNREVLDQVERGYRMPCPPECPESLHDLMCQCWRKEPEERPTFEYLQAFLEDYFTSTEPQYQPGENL
Experimental: as §1

BTK = BTK (Homo sapiens (Human), UniProt Q06187)
Experimental: as §1

MKNK1 = MKNK1 (Homo sapiens (Human), UniProt Q9BUB5)
Experimental: as §1

CAMK1G = CAMK1G (Homo sapiens (Human), UniProt Q96NX5)
Experimental: as §1

ERBB2 = ERBB2 (Homo sapiens (Human), UniProt P04626)
Experimental: as §1

AKT3 = AKT3 (Homo sapiens (Human), UniProt Q9Y243)
Experimental: as §1

MST1 = MST1 (Homo sapiens (Human), UniProt Q13043)
Experimental: as §1

RIOK3 = RIOK3 (Homo sapiens (Human), UniProt O14730)
Experimental: as §1

MERTK = MERTK (Homo sapiens (Human), UniProt Q12866)
Experimental: as §1

NEK6 = NEK6 (Homo sapiens (Human), UniProt Q9HC98)
Sequence of NEK6 (Q9HC98 whole entry): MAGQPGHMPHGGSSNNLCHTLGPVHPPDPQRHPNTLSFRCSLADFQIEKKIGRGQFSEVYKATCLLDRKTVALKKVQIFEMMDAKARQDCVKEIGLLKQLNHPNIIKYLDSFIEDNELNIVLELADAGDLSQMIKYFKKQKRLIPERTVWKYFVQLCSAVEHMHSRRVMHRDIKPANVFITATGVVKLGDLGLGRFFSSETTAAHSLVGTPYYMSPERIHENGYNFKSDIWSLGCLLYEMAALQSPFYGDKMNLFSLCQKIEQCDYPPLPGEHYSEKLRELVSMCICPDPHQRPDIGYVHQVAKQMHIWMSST
Experimental: as §1

TRKB = TRKB (Homo sapiens (Human), UniProt Q16620)
Experimental: as §1

EPHB 1 = EPHB 1 (Homo sapiens (Human), UniProt P54762)
Experimental: as §1

PKAC-beta = PKAC-beta (Homo sapiens (Human), UniProt P22694)
Experimental: as §1

Sequence of PIK3CA(H1047L) (P42336 whole entry H1047L): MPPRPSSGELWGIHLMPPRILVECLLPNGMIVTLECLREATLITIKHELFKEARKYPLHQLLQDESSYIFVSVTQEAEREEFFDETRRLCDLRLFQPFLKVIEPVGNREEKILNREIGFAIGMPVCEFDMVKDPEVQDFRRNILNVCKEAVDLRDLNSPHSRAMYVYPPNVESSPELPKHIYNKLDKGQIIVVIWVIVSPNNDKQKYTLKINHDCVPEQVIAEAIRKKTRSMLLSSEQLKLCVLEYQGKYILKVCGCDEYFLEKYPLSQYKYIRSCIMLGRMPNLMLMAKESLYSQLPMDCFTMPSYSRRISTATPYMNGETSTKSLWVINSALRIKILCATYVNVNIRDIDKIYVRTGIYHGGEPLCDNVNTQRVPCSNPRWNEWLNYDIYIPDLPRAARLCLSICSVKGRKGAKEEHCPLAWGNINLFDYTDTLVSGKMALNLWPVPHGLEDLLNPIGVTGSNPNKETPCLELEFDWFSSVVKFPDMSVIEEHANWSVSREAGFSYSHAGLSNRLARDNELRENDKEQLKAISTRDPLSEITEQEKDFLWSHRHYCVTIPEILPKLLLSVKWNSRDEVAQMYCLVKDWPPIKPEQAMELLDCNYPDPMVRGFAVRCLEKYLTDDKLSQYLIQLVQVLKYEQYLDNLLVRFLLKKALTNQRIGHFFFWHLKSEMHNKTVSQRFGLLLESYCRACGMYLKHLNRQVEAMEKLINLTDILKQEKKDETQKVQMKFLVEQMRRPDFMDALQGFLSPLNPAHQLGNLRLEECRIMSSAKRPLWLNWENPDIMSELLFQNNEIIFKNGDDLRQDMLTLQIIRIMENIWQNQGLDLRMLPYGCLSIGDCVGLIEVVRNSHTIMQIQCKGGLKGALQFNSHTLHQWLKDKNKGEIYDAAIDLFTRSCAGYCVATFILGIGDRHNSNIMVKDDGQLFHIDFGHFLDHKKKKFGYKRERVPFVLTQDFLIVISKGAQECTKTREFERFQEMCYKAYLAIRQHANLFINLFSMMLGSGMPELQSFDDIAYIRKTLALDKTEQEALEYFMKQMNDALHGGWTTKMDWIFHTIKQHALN

SMILES	remaining binding at 1 µM (MEK3) [%]	remaining binding at 1 µM (ROCK1) [%]	remaining binding at 1 µM (PIK3CA(H1047L)) [%]	remaining binding at 1 µM (RIOK2) [%]	remaining binding at 1 µM (TNK2) [%]	remaining binding at 1 µM (MTOR) [%]	remaining binding at 1 µM (CSK) [%]	remaining binding at 1 µM (DCAMKL2) [%]	remaining binding at 1 µM (TAOK3) [%]	remaining binding at 1 µM (FLT3 (D835Y)) [%]	remaining binding at 1 µM (KIT(V559D,T670I)) [%]	remaining binding at 1 µM (DDR1) [%]	remaining binding at 1 µM (CSNK1A1L) [%]	remaining binding at 1 µM (PRKD3) [%]	remaining binding at 1 µM (NLK) [%]	remaining binding at 1 µM (FYN) [%]	remaining binding at 1 µM [1] [%]	remaining binding at 1 µM [2] [%]	remaining binding at 1 µM [3] [%]	remaining binding at 1 µM (PKN1) [%]	further results
CCN1CCN(Cc2cc(NC(=O)c3ccc(C)c(-c4ccc5nc(NC(=O)C6CC6)cn5n4)c3)cc(C(F)(F)F)c2)CC1 [Compound I-2, 3-(2-(cyclopropanecarboxamido)imidazo[1,2-b]pyridazin-6-yl)-N-(3-((4-ethylpiperazin-1-yl)methyl)-5-(trifluoromethyl)phenyl)-4-methylbenzamide]	71	86	89	100	100	78	39	98	0.2	23	6.6	0.05	100	100	95	4.1	0.35	1.1	94	98	remaining binding at 1 µM (CDKL1): 40%; remaining binding at 1 µM (PHKG2): 93%; remaining binding at 1 µM (EPHA1): 44%; remaining binding at 1 µM (EGFR(L747-E749del,A750P)): 14%; remaining binding at 1 µM (MST3): 85%; remaining binding at 1 µM (SRC): 0%; remaining binding at 1 µM (BTK): 68%; remaining binding at 1 µM (MKNK1): 76%; remaining binding at 1 µM (CAMK1G): 85%; remaining binding at 1 µM (ERBB2): 82%; remaining binding at 1 µM (AKT3): 8%; remaining binding at 1 µM (MST1): 30%; remaining binding at 1 µM (RIOK3): 100%; remaining binding at 1 µM (MERTK): 0.25%; remaining binding at 1 µM (NEK6): 100%; remaining binding at 1 µM (TRKB): 0.05%; remaining binding at 1 µM (EPHB 1): 0.65%; remaining binding at 1 µM (PKAC-beta): 92%
CCN1CCN(Cc2cc(NC(=O)c3ccc(C)c(-c4ccc5nc(NC(=O)C6CC6)cn5c4)c3)cc(C(F)(F)F)c2)CC1 [Compound I-6, 3-(2-(cyclopropanecarboxamido)imidazo[1,2-a]pyridin-6-yl)-N-(3-((4-ethylpiperazin-1-yl)methyl)-5-(trifluoromethyl)phenyl)-4-methylbenzamide]	87	100	68	94	99	91	21	100	0.9	27	5.5	0.15	97	90	100	3.7	0.6	1.3	77	98	remaining binding at 1 µM (CDKL1): 77%; remaining binding at 1 µM (PHKG2): 98%; remaining binding at 1 µM (EPHA1): 38%; remaining binding at 1 µM (EGFR(L747-E749del,A750P)): 18%; remaining binding at 1 µM (MST3): 92%; remaining binding at 1 µM (SRC): 0%; remaining binding at 1 µM (BTK): 87%; remaining binding at 1 µM (MKNK1): 91%; remaining binding at 1 µM (CAMK1G): 100%; remaining binding at 1 µM (ERBB2): 71%; remaining binding at 1 µM (AKT3): 94%; remaining binding at 1 µM (MST1): 60%; remaining binding at 1 µM (RIOK3): 90%; remaining binding at 1 µM (MERTK): 0.25%; remaining binding at 1 µM (NEK6): 100%; remaining binding at 1 µM (TRKB): 0%; remaining binding at 1 µM (EPHB 1): 0.25%; remaining binding at 1 µM (PKAC-beta): 78%
